# Laboratory results published in patent publication US9579408B2, “PET/SPECT agents for applications in biomedical imaging” (Washington University, priority 2011, dated 2017).
# Where two headings read alike, the source gives them in different places.
# Legend:
# MDR1 Pgp (ABCB1) = conditions: mdr1a/1b (-/-) (dKO) mice, n = 3
# [1] = NanoSPECT/CT imaging in rat; format: in vivo; conditions: i.v. tail-vein, 30 min and 250 min post-injection
# Description: (FIG. 4) and 250 min. (FIG. 5) post-injection. The arrows indicate heart uptake.
# [2] = rats, n = 3
# [3] = Quantitative biodistribution in wild-type (WT) mice; conditions: n = 3
# Description: All bioassays were performed as described in earlier publications.
# [4] = rat, i.v. tail-vein, 60 min post-injection
# Description: This Example illustrates MicroPET imaging of myocardial perfusion in a rat. In these experiments, ^68Ga-radiopharmaceutical 1B was injected intravenously into a rat tail-vein; MicroPET images were obtained 60 min. (FIG. 6) post-injection.
smiles,measurement,setting,value
"CC(C)Oc1cccc2c1[O][67Ga+][O]c1c(cccc1OC(C)C)C=NCC(C)(C)CNCCNCC(C)(C)CN=C2.[I-] [Agent 1A, [ENBDMP-3-isopropoxy-PI-^67Ga]^+]","Biodistribution, blood",MDR1 Pgp (ABCB1); 5 min P.I.,1.54 % ID/g
same,"Biodistribution, blood",MDR1 Pgp (ABCB1); 15 min P.I.,0.64 % ID/g
same,"Biodistribution, blood",MDR1 Pgp (ABCB1); 60 min P.I.,0.34 % ID/g
same,"Biodistribution, blood",MDR1 Pgp (ABCB1); 120 min P.I.,0.19 % ID/g
same,"Biodistribution, brain",MDR1 Pgp (ABCB1); 5 min P.I.,1.05 % ID/g
same,"Biodistribution, brain",MDR1 Pgp (ABCB1); 15 min P.I.,0.65 % ID/g
same,"Biodistribution, brain",MDR1 Pgp (ABCB1); 60 min P.I.,0.99 % ID/g
same,"Biodistribution, brain",MDR1 Pgp (ABCB1); 120 min P.I.,0.96 % ID/g
same,"Biodistribution, heart",MDR1 Pgp (ABCB1); 5 min P.I.,17.02 % ID/g
same,"Biodistribution, heart",MDR1 Pgp (ABCB1); 15 min P.I.,10.59 % ID/g
same,"Biodistribution, heart",MDR1 Pgp (ABCB1); 60 min P.I.,14.61 % ID/g
same,"Biodistribution, heart",MDR1 Pgp (ABCB1); 120 min P.I.,20.29 % ID/g
same,"Biodistribution, kidneys",MDR1 Pgp (ABCB1); 5 min P.I.,86.12 % ID/g
same,"Biodistribution, kidneys",MDR1 Pgp (ABCB1); 15 min P.I.,84.19 % ID/g
same,"Biodistribution, kidneys",MDR1 Pgp (ABCB1); 60 min P.I.,95.60 % ID/g
same,"Biodistribution, kidneys",MDR1 Pgp (ABCB1); 120 min P.I.,115.23 % ID/g
same,"Biodistribution, liver",MDR1 Pgp (ABCB1); 5 min P.I.,46.34 % ID/g
same,"Biodistribution, liver",MDR1 Pgp (ABCB1); 15 min P.I.,46.45 % ID/g
same,"Biodistribution, liver",MDR1 Pgp (ABCB1); 60 min P.I.,42.54 % ID/g
same,"Biodistribution, liver",MDR1 Pgp (ABCB1); 120 min P.I.,29.82 % ID/g
same,NanoSPECT/CT image finding,[1],heart uptake
same,"Biodistribution, blood",[2]; 5 min P.I.,0.175 % ID/g
same,"Biodistribution, blood",[2]; 15 min P.I.,0.041 % ID/g
same,"Biodistribution, blood",[2]; 60 min P.I.,0.028 % ID/g
same,"Biodistribution, blood",[2]; 120 min P.I.,0.012 % ID/g
same,"Biodistribution, brain",[2]; 5 min P.I.,0.024 % ID/g
same,"Biodistribution, brain",[2]; 15 min P.I.,0.015 % ID/g
same,"Biodistribution, brain",[2]; 60 min P.I.,0.018 % ID/g
same,"Biodistribution, brain",[2]; 120 min P.I.,0.016 % ID/g
same,"Biodistribution, heart",[2]; 5 min P.I.,1.443 % ID/g
same,"Biodistribution, heart",[2]; 15 min P.I.,1.306 % ID/g
same,"Biodistribution, heart",[2]; 60 min P.I.,1.386 % ID/g
same,"Biodistribution, heart",[2]; 120 min P.I.,1.516 % ID/g
same,"Biodistribution, kidneys",[2]; 5 min P.I.,8.142 % ID/g
same,"Biodistribution, kidneys",[2]; 15 min P.I.,5.168 % ID/g
same,"Biodistribution, kidneys",[2]; 60 min P.I.,4.201 % ID/g
same,"Biodistribution, kidneys",[2]; 120 min P.I.,3.543 % ID/g
same,"Biodistribution, liver",[2]; 5 min P.I.,2.615 % ID/g
same,"Biodistribution, liver",[2]; 15 min P.I.,0.657 % ID/g
same,"Biodistribution, liver",[2]; 60 min P.I.,0.328 % ID/g
same,"Biodistribution, liver",[2]; 120 min P.I.,0.203 % ID/g
same,"Biodistribution, lung",[2]; 5 min P.I.,0.814 % ID/g
same,"Biodistribution, lung",[2]; 15 min P.I.,0.626 % ID/g
same,"Biodistribution, lung",[2]; 60 min P.I.,0.559 % ID/g
same,"Biodistribution, lung",[2]; 120 min P.I.,0.591 % ID/g
same,"Biodistribution, blood",[3]; 5 min P.I.,1.26 % ID/g
same,"Biodistribution, blood",[3]; 15 min P.I.,0.29 % ID/g
same,"Biodistribution, blood",[3]; 60 min P.I.,0.10 % ID/g
same,"Biodistribution, blood",[3]; 120 min P.I.,0.07 % ID/g
same,"Biodistribution, brain",[3]; 5 min P.I.,0.14 % ID/g
same,"Biodistribution, brain",[3]; 15 min P.I.,0.12 % ID/g
same,"Biodistribution, brain",[3]; 60 min P.I.,0.09 % ID/g
same,"Biodistribution, brain",[3]; 120 min P.I.,0.06 % ID/g
same,"Biodistribution, heart",[3]; 5 min P.I.,9.21 % ID/g
same,"Biodistribution, heart",[3]; 15 min P.I.,8.37 % ID/g
same,"Biodistribution, heart",[3]; 60 min P.I.,11.98 % ID/g
same,"Biodistribution, heart",[3]; 120 min P.I.,9.81 % ID/g
same,"Biodistribution, kidneys",[3]; 5 min P.I.,81.04 % ID/g
same,"Biodistribution, kidneys",[3]; 15 min P.I.,83.46 % ID/g
same,"Biodistribution, kidneys",[3]; 60 min P.I.,93.35 % ID/g
same,"Biodistribution, kidneys",[3]; 120 min P.I.,67.91 % ID/g
same,"Biodistribution, liver",[3]; 5 min P.I.,44.95 % ID/g
same,"Biodistribution, liver",[3]; 15 min P.I.,33.80 % ID/g
same,"Biodistribution, liver",[3]; 60 min P.I.,7.44 % ID/g
same,"Biodistribution, liver",[3]; 120 min P.I.,2.90 % ID/g
"CC(C)Oc1cccc2c1[O][68Ga-3]1345[O]c6c(cccc6OC(C)C)C=[N+]1CC(C)(C)C[NH+]3CC[NH+]4CC(C)(C)C[N+]5=C2.[I-] (stereo not drawn) [Agent 1B, [ENBDMP-3-isopropoxy-PI-^68Ga]^+]",MicroPET image finding,[4],low level of signal from liver compared to the heart
